From patent US10696692B2, “Amido-benzyl sulfone and sulfoxide derivates” (Forma TM, LLC, priority 2012, dated 2020)
Where two headings read alike, the source gives them in different places.

Legend:
A2780 cells = assay: Assay 2: In-Vitro Cell Proliferation Assay (A2780 cells, SRB readout, 72 hours); format: cell-based; settings: A2780 cells, 72 hours, SRB, read-out: Cell Proliferation (IC50);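 further: viable cells counted via sulforhodamine B staining, absorbance at 570 nm, after 72 h exposure at 37 °C, DMSO 0.1% as control, media-only background subtracted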
NAMPT = NAMPT (Homo sapiens (Human), UniProt P43490); assay: Assay 1: Biochemical Inhibition Assay (NAMPT enzymatic reaction, NMN quantified by mass spectrometry); settings: read-out: Biochemical (IC50);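 further: recombinant His-tagged human NAMPT preincubated with compound 15 min, then reacted 30 min at rt with 1 µM NAM, 100 µM PRPP, 2.5 mM ATP, NMN product read by RapidFire MS, normalized to L-Cystathionine internal standard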
NAMPT, sequence (P43490 whole entry): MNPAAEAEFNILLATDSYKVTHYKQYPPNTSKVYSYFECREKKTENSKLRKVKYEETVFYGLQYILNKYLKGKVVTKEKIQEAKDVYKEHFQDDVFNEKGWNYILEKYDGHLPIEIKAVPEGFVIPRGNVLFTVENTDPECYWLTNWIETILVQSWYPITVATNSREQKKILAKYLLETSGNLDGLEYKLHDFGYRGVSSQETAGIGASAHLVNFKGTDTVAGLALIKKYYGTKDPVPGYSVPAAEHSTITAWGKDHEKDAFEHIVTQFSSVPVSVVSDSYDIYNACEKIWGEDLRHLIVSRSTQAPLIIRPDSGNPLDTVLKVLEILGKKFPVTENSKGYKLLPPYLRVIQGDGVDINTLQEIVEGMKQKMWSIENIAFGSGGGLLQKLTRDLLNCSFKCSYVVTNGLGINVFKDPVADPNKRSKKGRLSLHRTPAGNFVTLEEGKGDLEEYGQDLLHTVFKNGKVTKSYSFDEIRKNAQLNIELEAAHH

Structure (SMILES) | IC50 (A2780 cells; Homo sapiens, A2780, 72 h) [nM] | IC50 (NAMPT) [nM] | IC50 (A2780 cells) [nM]
O=C(NCc1ccc(S(=O)(=O)C2CCN(C(=O)c3ccccc3)CC2)cc1)c1cnc2[nH]ncc2c1 [Example 344, N-[[4-[(1-benzoyl-4-piperidyl)sulfonyl]phenyl]methyl]-1H-pyrazolo[3,4-b]pyridine-5-carboxamide] | 451 | 302 | 
O=C(NCc1ccc(S(=O)(=O)N2CC3CCC(F)(F)C3C2)cc1)c1ccc2nccn2c1 (single isomer, unassigned) [Example 74, cis-Imidazo[1,2-a]pyridine-6-carboxylic acid 4-(4,4-difluoro-hexahydro-cyclopenta[c]pyrrole-2-sulfonyl)-benzylamide] |  | 5 | 2.7
CN1CC2CCN(S(=O)(=O)c3ccc(CNC(=O)c4ccc5nccn5c4)cc3)C2C1 (racemic) [Example 143, cis-Imidazo[1,2-a]pyridine-6-carboxylic acid 4-(5-methyl-hexahydro-pyrrolo[3,4-b]pyrrole-1-sulfonyl)-benzylamide] | 20.4 | 100 | 
O=C(NCc1ccc(S(=O)(=O)N2CCN(CCO)CC2)cc1)c1ccc2nccn2c1 [Example 94, Imidazo[1,2-a]pyridine-6-carboxylic acid 4-[4-(2-hydroxy-ethyl)-piperazine-1-sulfonyl]-benzylamide] | 29 | 75.9 | 
O=C(NCc1ccc(S(=O)(=O)C2CCN(C3CCOCC3)CC2)cc1)c1ccc2nccn2c1 [Example 69, Imidazo[1,2-a]pyridine-6-carboxylic acid 4-[1-(tetrahydro-pyran-4-yl)-piperidine-4-sulfonyl]-benzylamide] |  | 13.6 | 4.7
O=C(NCc1ccc(S(=O)(=O)C2CCCOC2)cc1)c1cc2cnccc2[nH]1 (centres unmarked) [Example 266, N-[(4-tetrahydropyran-3-ylsulfonylphenyl)methyl]-1H-pyrrolo[3,2-c]pyridine-2-carboxamide] | 18.5 | 33.1 | 
O=C(NCc1ccc(S(=O)(=O)[C@@H]2CCOC2)cc1)c1cc2cnccc2[nH]1 [Example 225, N-[[4-[(3R)-tetrahydrofuran-3-yl]sulfonylphenyl]methyl]-1H-pyrrolo[3,2-c]pyridine-2-carboxamide] | 320 | 118 | 
O=C(NCc1ccc(S(=O)(=O)N2CCC3(CCNCC3)CC2)cc1)c1ccc2nccn2c1 [Example 324, N-[[4-(3,9-diazaspiro[5.5]undecan-3-ylsulfonyl)phenyl]methyl] imidazo[1,2-a]pyridine-6-carboxamide] | 24.8 | 19.2 | 
COCCNC1CCN(S(=O)(=O)c2ccc(CNC(=O)c3cnc4[nH]ncc4c3)cc2)CC1 [Example 39, 1H-Pyrazolo[3,4-b]pyridine-5-carboxylic acid 4-[4-(2-methoxy-ethylamino)-piperidine-1-sulfonyl]-benzylamide] | 94.7 | 83.5 | 
O=C(NCc1ccc(S(=O)(=O)C2CCN(C3CCOCC3)CC2)cc1)c1ccc2nccn2c1 [Example 214, N-[[4-[(1-tetrahydropyran-4-yl-4-piperidyl)sulfonyl]phenyl]methyl]imidazo[1,2-a] pyridine-6-carboxamide] | 4.73 | 13.6 | 
CN1CCC2(C1)CN(S(=O)(=O)c1ccc(CNC(=O)c3cc4ccncc4o3)cc1)C2 [Example 197, N-[[4-[(6-methyl-2,6-diazaspiro[3.4]octan-2-yl)sulfonyl]phenyl]methyl] furo[2,3-c]pyridine-2-carboxamide] | 16.8 | 2.83 | 
CC(=O)N(C)C1CCN(S(=O)(=O)c2ccc(CNC(=O)c3ccc4nccn4c3)cc2)C1 (racemic) [Example 101, Imidazo[1,2-a]pyridine-6-carboxylic acid 4-[3-(acetyl-methyl-amino)-pyrrolidine-1-sulfonyl]-benzylamide] | 9.7 | 20.3 | 
O=C(NCc1ccc(S(=O)(=O)N2CCCC3(CCCCN3)C2)cc1)c1ccc2nccn2c1 (centres unmarked) [Example 326, N-[[4-(1,8-diazaspiro[5.5]undecan-8-ylsulfonyl)phenyl]methyl] imidazo[1,2-a]pyridine-6-carboxamide] |  | 107 | 60.1
O=C(NCc1ccc(S(=O)(=O)N2CC3CCC(F)(F)C3C2)cc1)c1cc2ccncc2o1 (centres unmarked) [Example 296, N-[[4-[(4,4-difluoro-1,3,3a,5,6,6a-hexahydrocyclopenta[c]pyrrol-2-yl)sulfonyl]phenyl]methyl]furo [2,3-c]pyridine-2-carboxamide] | 10.1 | 9.84 | 
O=C(NCc1ccc(S(=O)(=O)N2CCC2)cc1)c1ccc2nccn2c1 [Example 240, N-[[4-(azetidin-1-ylsulfonyl)phenyl]methyl] imidazo[1,2-a]pyridine-6-carboxamide] | 140 | 41 | 
CS(=O)(=O)N1CCCC(S(=O)(=O)c2ccc(CNC(=O)c3cnc4[nH]ncc4c3)cc2)C1 (centres unmarked) [Example 353, N-[[4-[(1-methylsulfonyl-3-piperidyl)sulfonyl)phenyl]methyl]-1H-pyrazolo[3,4-b]pyridine-5-carboxamide] | 2000 | 3970 | 

Structure (SMILES) | IC50 (A2780 cells; Homo sapiens, A2780, 72 h) [nM] | IC50 (NAMPT) [nM] | IC50 (A2780 cells) [nM]
O=C(NCc1ccc(S(=O)(=O)N2CCOC3(CCNCC3)C2)cc1)c1ccc2nccn2c1 [Example 319, N-[[4-(1-oxa-4,9-diazaspiro[5.5]undecan-4-ylsulfonyl)phenyl]methyl] imidazo[1,2-a]pyridine-6-carboxamide] | 102 | 106 | 
CN1CCC([S+]([O-])c2ccc(CNC(=O)c3cc4ccncc4o3)cc2)CC1 (centres unmarked) [Example 379, N-[[4-[(1-methyl-4-piperidyl)sulfinyl]phenyl]methyl]furo[2,3-c]pyridine-2-carboxamide] | 41.4 | 114 | 
CCN1CCC([S+]([O-])c2ccc(CNC(=O)c3cnc4[nH]ncc4c3)cc2)CC1 (centres unmarked) [Example 373, N-[[4-[(1-ethyl-4-piperidyl)sulfinyl]phenyl]methyl]-1H-pyrazolo[3,4-b]pyridine-5-carboxamide] | 15.4 | 113 | 
O=C(NCc1ccc(S(=O)(=O)N2CC3CCC(C2)O3)cc1)c1cnc2nccn2c1 [Example 26, Imidazo[1,2-a]pyrimidine-6-carboxylic acid 4-(8-oxa-3-aza-bicyclo[3.2.1]octane-3-sulfonyl)-benzylamide] | 135 | 4.6 | 
O=C(NCc1ccc(S(=O)(=O)C2CCCN(C(=O)c3ccccc3)C2)cc1)c1cnc2[nH]ncc2c1 (centres unmarked) [Example 350, N-[[4-[(1-benzoyl-3-piperidyl)sulfonyl]phenyl]methyl]-1H-pyrazolo[3,4-b]pyridine-5-carboxamide] | 258 | 300 | 
O=C(NCc1ccc(S(=O)(=O)N2CC3(CCOCC3)C2)cc1)c1cnc2[nH]ncc2c1 [Example 269, N-[[4-(7-oxa-2-azaspiro[3.5]nonan-2-ylsulfonyl)phenyl]methyl]-1H-pyrazolo[3,4-b]pyridine-5-carboxamide] | 45.1 | 113 | 
CC(C)CN1CCC([S+]([O-])c2ccc(CNC(=O)c3cnc4[nH]ncc4c3)cc2)CC1 (centres unmarked) [Example 190, N-[[4-[(1-isobutyl-4-piperidyl)sulfinyl]phenyl]methyl]-1H-pyrazolo[3,4-b]pyridine-5-carboxamide] | 23 | 130 | 
CC(C)(C)OC(=O)N1CC2CN(S(=O)(=O)c3ccc(CNC(=O)c4ccc5nccn5c4)cc3)CC2C1 (racemic) [Example 137, cis-5-(4-{[(Imidazo[1,2-a]pyridine-6-carbonyl)-amino]-methyl}-benzenesulfonyl)-hexahydro-pyrrolo[3,4-c]pyrrole-2-carboxylic acid tert-butyl ester] | 4.23 | 10.5 | 
CC(C)(C)OC(=O)NC1CCN(S(=O)(=O)c2ccc(CNC(=O)c3ccc4nccn4c3)cc2)CC1 [Example 55, [1-(4-{[(lmodazo[1,2-a]pyridine-6-carbonyl)-amino]-methyl}-benzenesulfonyl)-piperidin-4-yl]-carbamic acid tert-butyl ester] | 4.3 | 7.7 | 
C[C@@H]1CN(S(=O)(=O)c2ccc(CNC(=O)c3ccc4nccn4c3)cc2)C[C@H](C)N1 [Example 60, cis-Imidazo[1,2-a]pyridine-6-carboxylic acid 4-((3R,5S)-3,5-dimethyl-piperazine-1-sulfonyl)-benzylamide] | 15.2 | 29.4 | 
CC(C)(C)OC(=O)N1C[C@H]2CN(S(=O)(=O)c3ccc(CNC(=O)c4ccc5nccn5c4)cc3)C[C@H]21 (racemic) [Example 128, cis-3-(4-{[(Imidazo[1,2-a]pyridine-6-carbonyl)-amino]-methyl}-benzenesulfonyl)-3,6-diaza-bicyclo[3.2.0]heptane-6-carboxylic acid tert-butyl ester] | 11.4 | 46.9 | 
CC(C)(C)OC(=O)N1C[C@@H]2OCCN(S(=O)(=O)c3ccc(CNC(=O)c4ccc5nccn5c4)cc3)[C@@H]2C1 (racemic) [Example 130, cis-4-(4-{[(Imidazo[1,2-a]pyridine-6-carbonyl)-amino]-methyl}-benzenesulfonyl)-hexahydro-pyrrolo[3,4-b][1,4]oxazine-6-carboxylic acid tert-butyl ester] |  | 75.8 | 11.3
COC1CCN(S(=O)(=O)c2ccc(CNC(=O)c3cc4ccncc4o3)cc2)CC1 [Example 7, Furo[2,3-c]pyridine-2-carboxylic acid 4-(4-methoxy-piperidine-1-sulfonyl)-benzylamide] | 13.3 | 10.9 | 
CC(C)CN1CCC([S+]([O-])c2ccc(CNC(=O)N3Cc4ccncc4C3)cc2)CC1 (centres unmarked) [Example 374, N-[(4-[(1-isobutyl-4-piperidyl)sulfinyl]phenyl]methyl]-1,3-dihydropyrrolo[3,4-c]pyridine-2-carboxamide] | 2.83 | 15.2 | 
CC(C)(C)OC(=O)N1C[C@H]2CCN(S(=O)(=O)c3ccc(CNC(=O)c4ccc5nccn5c4)cc3)[C@H]2C1 (racemic) [Example 135, cis-1-(4-{[(Imidazo[1,2-a]pyridine-6-carbonyl)-amino]-methyl}-benzenesulfonyl)-hexahydro-pyrrolo[3,4-b]pyrrole-5-carboxylic acid tert-butyl ester] | 5.52 | 20.2 | 
